{"source": "patent US10780061B2", "about": "“Composition comprising farnesol and use thereof” (Daegu Gyongbuk Institute of Science and Technology, priority 2014, dated 2020)", "key": {"[1]": {"assay": "GA muscle mass, lean mass and heart mass of mice according to farnesol administration", "type": "in vivo, mouse", "procedure": "22-month-old female mice (weighing 30 g) are fed with a control diet and a farnesol diet for 4 months. That is, 22-month-old mice are fed for 4 months, and then 26-month-old mice are analyzed."}, "[2]": {"system": "PARIS-overexpressing C2C12 cells", "assay": "Differentiation of PARIS-overexpressing myoblasts (Myh immunostaining)", "type": "cell-based", "procedure": "In C2C12 myoblasts, a PARIS gene expression vector (pCMV-Tag2A, Stratagene) is transiently expressed, followed by immunoblotting and immunostaining analysis. PARIS gene is a full length cDNA of human PARIS gene having a nucleotide sequence of SEQ ID NO: 9. […] After induction of differentiation of PARIS-overexpressing C2C12 cells for 3 days, immunostaining for Myh expression is performed. To induce the differentiation, cells are cultured in DMEM containing 2% horse serum and 0.1 μM farnesol dissolved in DMSO for 48 hours. A control group is cultured in the same manner as above, except that only DMSO is added. Other culture conditions are the same as those described in Section 1 of Example 2. As shown in panel (A) of FIG. 4F, PARIS overexpression decreases Myh-positive myotube formation, and reduced myotube formation is recovered by farnesol treatment. In (A) of FIG. 4F, Control represents myoblasts introduced with no PARIS gene expression vector, and ‘PARIS’ represents myoblasts introduced with a PARIS gene expression vector. In these experiments, blue color staining indicates nuclei, and red color staining indicates stained myh and also myotubes. The colors are not shown in panel (A) of FIG. 4F, but the difference in the relative amount of red color stained area is quantified in panel (B) of FIG. 4F, wherein pCMV represents the control myoblasts without a PARIS gene expression vector. […]"}, "PARIS [3]": {"target": "T1, PARIS (Mus musculus, UniProt Q3U133)", "T1 construct": "endogenous in cells; host or cells: C2C12 myoblasts", "T1 sequence (Q3U133 whole entry)": "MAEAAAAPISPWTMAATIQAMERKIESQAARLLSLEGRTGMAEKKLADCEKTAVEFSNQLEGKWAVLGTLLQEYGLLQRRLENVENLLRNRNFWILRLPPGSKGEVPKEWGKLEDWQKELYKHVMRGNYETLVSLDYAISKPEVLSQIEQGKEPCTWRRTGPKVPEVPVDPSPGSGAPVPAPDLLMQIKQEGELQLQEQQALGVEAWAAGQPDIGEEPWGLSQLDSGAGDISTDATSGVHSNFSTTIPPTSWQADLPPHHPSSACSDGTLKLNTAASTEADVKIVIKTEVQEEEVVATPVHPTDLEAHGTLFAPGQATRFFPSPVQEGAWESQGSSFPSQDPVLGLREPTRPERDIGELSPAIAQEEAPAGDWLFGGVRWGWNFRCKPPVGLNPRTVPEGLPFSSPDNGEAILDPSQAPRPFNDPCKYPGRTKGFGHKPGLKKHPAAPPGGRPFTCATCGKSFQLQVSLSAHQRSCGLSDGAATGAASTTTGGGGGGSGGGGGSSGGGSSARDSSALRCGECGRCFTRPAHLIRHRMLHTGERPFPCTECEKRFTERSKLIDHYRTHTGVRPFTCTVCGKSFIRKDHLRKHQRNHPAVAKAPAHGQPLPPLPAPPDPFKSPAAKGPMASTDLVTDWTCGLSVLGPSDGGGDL", "assay": "Immunoprecipitation analysis for PARIS farnesylation in myoblasts", "type": "cell-based", "procedure": "C2C12 cells are cultured in the presence of farnesol, and cell lysate is subjected to immunoprecipitation. As an experimental group, C2C12 cells are cultured in the presence of 10 uM farnesol for 24 hours, and also cultured in the differentiation medium described in Section 2 of Example 1 for 24 hours by adding 10 uM farnesol according to a culturing schedule, that is, at 0 day, 1 day, 2 days, 3 days, and 4 days (hereinafter, also referred to as ‘D0, D1, D2, D3 and D4’ or ‘D0-D04’). Next, a cell lysis buffer (20 mM Tris-HCl, pH 8, 150 mM NaCl, 1% Triton X, Proteinase Inhibitor) is added to the harvested cells, and cell lysis is allowed under refrigeration for 60 minutes, followed by centrifugation at 13,000 rpm for 20 minutes. A supernatant is removed by 50 uL of protein A/G-agarose in advance, and a target protein antibody is reacted for 12 hours or longer. The resultant is mixed with protein A/G-agarose beads, and stirred for 1 hour. The beads are washed with a cold lysis buffer at a low concentration three times to remove abnormal protein binding. The obtained sample is mixed with a 2×SDS sample buffer (0.125 M Tris-HCl (pH 6.8), 4% SDS, 10% β-mercaptoethanol, 18% glycerol, and 0.1% Bromophenol Blue), and then electrophoresed on 8% SDS-PAGE. […]"}, "[4]": {"system": "succinic dehydrogenase (SDH)", "assay": "SDH staining (mitochondrial enzyme activity) of extensor digitorum longus muscle", "type": "in vivo, mouse", "procedure": "Staining of succinic dehydrogenase (SDH) in the extensor digitorum longus muscle of a mouse administered with farnesol for 5 weeks is performed. This staining method is a method of analyzing mitochondrial activity by measuring activity of SDH which is an enzyme involved in the electron transport chain of mitochondria. Staining degree represents a content of oxidative muscle fiber. Frozen tissue sections are reacted in 0.2 M phosphate buffer (pH 7.4) containing […] sodium succinate and nitro blue tetrazolium (NBT) at 37° C. for 60 minutes, washed with distilled water, and then sealed, followed by observation. Further, farnesol is administered to mice in the same manner as in Section 4 of Example 2, except that 22-month-old mice are used instead of 5-month-old mice and administration is performed for 4 months instead of 5 weeks, and activity of a mitochondrial enzyme according to farnesol administration is analyzed in the extensor digitorum longus muscles of old mice."}, "[5]": {"system": "lower limb muscles (GAS, SOL, EDL, TA)", "assay": "Observation of lower limb muscles of mice administered with farnesol", "type": "in vivo, mouse", "conditions": "mice fed with farnesol for 5 weeks", "procedure": "5 month-old C57BL/6 male mice (weighing 22 g) are maintained at a temperature of 22±2° C., humidity of 55±5%, and a light-dark cycle of 12:12 hours. An animal feed containing 0.5% w/w farnesol was supplied by Jung-Ang Lab Animal Inc. A control group is fed with a feed equivalent to a general feed for experimental animals, excluding that no 0.5% w/w farnesol is contained. They are allowed free access to drinking water. Skeletal muscles were separated from the mice and control mouse fed with farnesol for 5 weeks, and subjected to immunoblot analysis. In all the following Examples, administration or feeding of mouse is performed as above, unless otherwise mentioned. […] In this specification, assuming that human life expectancy of 100 years corresponds to mouse life expectancy of 3 years, human life expectancy is estimated from the relationship. […] Herein, GAS indicates gastrocnemius muscle, SOL indicates soleus muscle, EDL indicates extensor digitorum longus muscle, and TA indicates tibialis anterior muscle. Gastrocnemius muscle exists as a white muscle because glycolytic muscle fibers are mainly distributed therein."}, "PARIS [6]": {"system": "PARIS", "assay": "PARIS protein and transcriptional levels in extensor digitorum longus muscles of old mouse", "type": "in vivo", "conditions": "24-month-old mouse, farnesol 5 weeks, vs old mouse without farnesol"}, "[7]": {"conditions": "old animal, farnesol diet 4 months"}}, "data": [{"smiles": "CC(C)=CCC/C(C)=C/CC/C(C)=C/CO", "note": "[farnesol, (2E,6E)-3,7,11-trimethyldodeca-2,6,10-trien-1-ol]", "values": [{"measurement": "GA muscle mass", "setting": "[1]; [7]", "value": 0.099, "unit": "g"}, {"measurement": "heart mass (versus control old animal)", "setting": "[1]; [7]", "value": 0.156, "unit": "g"}, {"measurement": "lean mass", "setting": "[1]; [7]", "value": 15.3, "unit": "g"}, {"measurement": "side effects such as muscular hypertrophy", "setting": "[1]; old animals, farnesol diet 4 months", "value": "does not cause side effects such as muscular hypertrophy"}, {"measurement": "heart mass (versus control young animal)", "setting": "[1]; printed as farnesol old animal, compared with control young animal", "value": 0.115, "unit": "g"}, {"measurement": "red color (Myh) stained area, control cells without PARIS vector", "setting": "[2]; CONTROL (pCMV) C2C12, 0.1 μM farnesol vs DMSO", "value": "‘CONTROL’ cell treated with DMSO is smaller than that of ‘CONTROL’ cell treated with Farnesol"}, {"measurement": "Myh-positive myotube formation reduced by PARIS overexpression", "setting": "[2]; PARIS-overexpressing C2C12, 0.1 μM farnesol", "value": "recovered"}, {"measurement": "farnesylated PARIS level", "setting": "PARIS [3]; 10 uM farnesol, D0-D4", "value": "further increases"}, {"measurement": "PGC-1α expression", "setting": "PARIS [3]; 10 uM farnesol-treated myoblasts", "value": "increased"}, {"measurement": "percentage of the area stained dark (SDH activity) in EDL", "setting": "[4]; 5-month-old mice, farnesol 5 weeks", "value": "remarkably increased"}, {"measurement": "percentage of the area stained dark (SDH activity) in EDL", "setting": "[4]; 22-month-old mice, farnesol 4 months", "value": "remarkably increased"}, {"measurement": "muscle fibers of gastrocnemius, soleus, extensor digitorum longus and tibialis anterior muscle (appearance)", "setting": "[5]", "value": "converted to red muscles having a high percentage of oxidative muscle fibers"}, {"measurement": "protein expression level of PARIS in EDL", "setting": "PARIS [6]", "value": "remarkably decreased"}, {"measurement": "transcriptional level of PARIS in EDL", "setting": "PARIS [6]", "value": "remarkably decreased"}]}]}
